ChEMBL document CHEMBL3351480, “Discovery of novel non-carboxylic acid 5-amino-4-cyanopyrazole derivatives as potent and highly selective LPA1R antagonists” (Bioorg Med Chem Lett, 2014)
Calls of active or inactive are those of the source. The rule behind the calls is not given here.

Experiments:
Assay type in all cases: functional, cell-based
[1] = target: T1, Lysophosphatidic acid receptor 3 (Homo sapiens) (UniProt Q9UBY5); assay: Antagonist activity at human LPA3R expressed in Chem-1 cells assessed as inhibition of lysophosphatidic acid-induced calcium mobilization by FLIPR assay
T1 sequence (whole entry): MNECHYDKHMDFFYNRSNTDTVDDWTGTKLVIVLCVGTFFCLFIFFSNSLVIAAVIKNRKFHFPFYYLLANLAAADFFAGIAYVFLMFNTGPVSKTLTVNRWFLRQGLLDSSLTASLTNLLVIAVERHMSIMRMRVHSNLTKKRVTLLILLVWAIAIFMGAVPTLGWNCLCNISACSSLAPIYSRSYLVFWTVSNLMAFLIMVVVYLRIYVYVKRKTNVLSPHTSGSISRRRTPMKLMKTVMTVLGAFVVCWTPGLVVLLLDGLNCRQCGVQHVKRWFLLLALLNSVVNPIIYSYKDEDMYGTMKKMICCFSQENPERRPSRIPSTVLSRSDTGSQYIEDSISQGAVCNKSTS

[2] = target: Lysophosphatidic acid receptor 1 (Homo sapiens) (UniProt Q92633); assay: Antagonist activity at human LPA1R expressed in Chem-1 cells assessed as inhibition of lysophosphatidic acid-induced calcium mobilization at 30 uM by FLIPR assay
Sequence of Lysophosphatidic acid receptor 1 (Homo sapiens) (Q92633 whole entry): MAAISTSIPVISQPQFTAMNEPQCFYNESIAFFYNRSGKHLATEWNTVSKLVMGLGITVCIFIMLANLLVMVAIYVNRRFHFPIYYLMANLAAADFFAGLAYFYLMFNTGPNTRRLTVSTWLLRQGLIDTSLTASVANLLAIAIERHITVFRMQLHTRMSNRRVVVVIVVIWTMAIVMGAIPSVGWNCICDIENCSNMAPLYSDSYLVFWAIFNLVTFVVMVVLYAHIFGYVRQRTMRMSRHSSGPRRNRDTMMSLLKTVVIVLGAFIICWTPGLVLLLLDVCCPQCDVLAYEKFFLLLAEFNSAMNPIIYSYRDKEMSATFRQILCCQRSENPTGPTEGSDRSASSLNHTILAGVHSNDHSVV

[3] = target: T1, Lysophosphatidic acid receptor 3 (Homo sapiens); assay: Antagonist activity at human LPA3R expressed in Chem-1 cells assessed as inhibition of lysophosphatidic acid-induced calcium mobilization at 30 uM by FLIPR assay
[4] = Antiproliferative activity against human NHLF cells assessed as inhibition of lysophosphatidic acid-induced proliferation by BrdU incorporation assay

With `COc1ccc(-c2[nH]c3c(C#N)cnn3c2NC2CCCC2)c(OC)c1` the inhibition [1] was “inactive”.
Molecule `CCc1ccc(C(=O)/C(=N\C2CCCC2)n2ncc(C#N)c2N)cc1` has an inhibition [2] of 100%, an inhibition [3] of 14% and an IC50 [4] of 533 nM.
Molecule `COc1cc2ccccc2cc1C(=O)/C(=N\C1CCCC1)n1ncc(C#N)c1N` has an inhibition [2] of 78%, an inhibition [3] of 2% and an IC50 [4] of 184 nM.
In the case of `COc1ccc(C(=O)/C(=N\C2CCCCC2)n2ncc(C#N)c2N)c(OC)c1`, the inhibition [2] is reported as 85%, the inhibition [3] is reported as 30% and the IC50 [4] is reported as 3870 nM.
In the case of `COc1cc(F)ccc1C(=O)/C(=N\C1CCCC1)n1ncc(C#N)c1N`, the inhibition [2] is reported as 49% and the inhibition [3] is reported as 3%.
For `N#Cc1cnn(/C(=N/C2CCCC2)C(=O)c2ccc(Br)cc2)c1N`, the inhibition [2] was 96% and the inhibition [3] was 1%.
`COc1cc(OCc2ccccc2)ccc1C(=O)/C(=N\C1CCCC1)n1ncc(C#N)c1N` gave an inhibition [2] of 48% and an inhibition [3] of 23%.
`COc1ccc(C(=O)/C(=N\C2CCCC2)n2ncc(C#N)c2N)c(F)c1` showed an inhibition [2] of 100%, an inhibition [3] of 4% and an IC50 [4] of 104 nM.
Molecule `COc1cc(OC)c(C(=O)/C(=N\C2CCCC2)n2ncc(C#N)c2N)cc1OC` has an inhibition [2] of 79% and an inhibition [3] of 8%.
With `COc1cc2c(cc1C(=O)/C(=N\C1CCCC1)n1ncc(C#N)c1N)CCC2` the inhibition [2] was 78% and the inhibition [3] was 19%.
`COc1ccc(C(=O)/C(=N\C(C)C)n2ncc(C#N)c2N)c(OC)c1` showed an inhibition [2] of 88%, an inhibition [3] of 25% and an IC50 [4] of 27 nM.
Work on `COc1cc(C(=O)/C(=N\C2CCCC2)n2ncc(C#N)c2N)cc(OC)c1OC` yielded an inhibition [2] of 13% and an inhibition [3] of 14%.
In the case of `COc1ccc(C(=O)/C(=N\C2CCCC2)n2ncc(C#N)c2N)c(OC)c1`, the inhibition [2] is reported as 98%, the inhibition [3] is reported as 23% and the IC50 [4] is reported as 29 nM.
